# Measured values published in US20110251238A1, “PPAR AGONIST COMPOSITIONS AND METHODS OF USE” (BIOPHARMED, priority 2008, published 2011).
# Like-named read-outs stand apart in the source and are kept apart here.
# Tests used:
# [1] = system: KB3 (epitheloid lung cancer) cell lines; assay: Cell growth inhibition (cytotoxicity), MTS assay, KB3 cell line; assay type: cell-based; conditions: Table 3A, MTS assay, triplicate, read-out: KB3 IC50
# Procedure: Cell growth inhibition was determined by the MTS assay; the number of viable cells were proportional to the extent of formazan production in the presence or absence of drugs. […]
# [2] = system: A549 (human lung adenocarcinoma epithelial); assay: Growth inhibition, MTT colorimetric assay, A549; assay type: cell-based; conditions: carcinoma, 3 days with drug, means of six values, unit inferred, read-out: IC50 A549
# Procedure: (§1) A549 (human lung adenocarcinoma epithelial), BxPC3 (pancreatic cancer), LoVo (colon cancer), MCF-7 (epithelial breast cancer), PC3 (human prostate cancer), Hs683 (human glioma), T98G (glioblastoma), U373 (human glioblastoma-astrocytoma), U138 MG (human glioma), epithelial-like), SKMEL28 (human melanoma), B16-F10 (mouse melanoma) and RhTP (rhabdomyosarcoma) cell lines were cultured in presence of the drugs for 3 days. The cytotoxic activity is expressed as (IC50). Inhibition of cell proliferation measured by the MTT colorimetric assay. The values reported in Table 4 are means of six distinct values.
# [3] = system: BxPC3 (pancreatic cancer); assay: Growth inhibition, MTT colorimetric assay, BxPC3; assay type: cell-based, human; conditions: carcinoma, 3 days with drug, means of six values, unit inferred, read-out: IC50 BxPC3
# Procedure: Cells are cultured at 37° C. in Falcon culture dishes, incubated at 5% CO2 in a suitable culture medium available from Invitrogen Corp. Anti-proliferative activity is determined by an MTT assay (bromide of (3-[4,5-dimethylthiazolium-yl]diphenyltetrazolium)). According to one standard protocol, absorbance is measured at 570 nm (see Dumont et al. (2007) Neoplasia 9: 766-776.
# as §1
# LoVo (colon cancer) = assay: Growth inhibition, MTT colorimetric assay, LoVo; assay type: cell-based; conditions: carcinoma, 3 days with drug, means of six values, unit inferred, read-out: IC50 LoVo
# Procedure: as §1
# [4] = system: MCF-7 (epithelial breast cancer); assay: Growth inhibition, MTT colorimetric assay, MCF7; assay type: cell-based; conditions: carcinoma, 3 days with drug, means of six values, unit inferred, read-out: IC50 MCF7
# Procedure: as §1
# [5] = system: PC3 (human prostate cancer); assay: Growth inhibition, MTT colorimetric assay, PC3; assay type: cell-based; conditions: carcinoma, 3 days with drug, means of six values, unit inferred, read-out: IC50 PC3
# Procedure: as §1, with “Compounds that met the criteria for activity on KB3 cells were further tested for drug growth inhibitory activity in 5 carcinoma, 6 glioma and 3 melanoma cell lines, shown in Table 4. A549” for “A549”, “values. The standard errors are <5% as compared to the mean values.” for “values.”
# Hs683 (human glioma) = assay: Growth inhibition, MTT colorimetric assay, HS683; assay type: cell-based; conditions: glioma, 3 days with drug, means of six values, unit inferred, read-out: IC50 HS683
# Procedure: as §1
# T98G (glioblastoma) = assay: cells; assay type: cell-based; conditions: glioma, 3 days with drug, means of six values, unit inferred, read-out: IC50 T98G
# Procedure: as §1
# [6] = system: U373 (human glioblastoma-astrocytoma); assay: Growth inhibition, MTT colorimetric assay, U373; assay type: cell-based; conditions: glioma, 3 days with drug, means of six values, unit inferred, read-out: IC50 U373
# Procedure: as §1, with “Compounds that met the criteria for activity on KB3 cells were further tested for drug growth inhibitory activity in 5 carcinoma, 6 glioma and 3 melanoma cell lines, shown in Table 4. A549” for “A549”, “values. The standard errors are <5% as compared to the mean values.” for “values.”
# U138 MG (human glioma) = assay: Growth inhibition, MTT colorimetric assay, U138; assay type: cell-based; conditions: glioma, 3 days with drug, means of six values, unit inferred, read-out: IC50 U138
# Procedure: as §1, with “Compounds that met the criteria for activity on KB3 cells were further tested for drug growth inhibitory activity in 5 carcinoma, 6 glioma and 3 melanoma cell lines, shown in Table 4. A549” for “A549”, “values. The standard errors are <5% as compared to the mean values.” for “values.”
# GL19 = assay: Growth inhibition, MTT colorimetric assay, GL19; assay type: cell-based; conditions: 3 days with drug, means of six values, unit inferred, read-out: IC50 GL19
# Procedure: as §1, with “Compounds that met the criteria for activity on KB3 cells were further tested for drug growth inhibitory activity in 5 carcinoma, 6 glioma and 3 melanoma cell lines, shown in Table 4. A549” for “A549”, “values. The standard errors are <5% as compared to the mean values.” for “values.”
# RhTP (rhabdomyosarcoma) = assay: Growth inhibition, MTT colorimetric assay, RhTp; assay type: cell-based; conditions: 3 days with drug, means of six values, unit inferred, read-out: IC50 RhTp
# Procedure: as §1, with “Compounds that met the criteria for activity on KB3 cells were further tested for drug growth inhibitory activity in 5 carcinoma, 6 glioma and 3 melanoma cell lines, shown in Table 4. A549” for “A549”, “values. The standard errors are <5% as compared to the mean values.” for “values.”
# KaKa = assay: Growth inhibition, MTT colorimetric assay, KaKa; assay type: cell-based; conditions: 3 days with drug, means of six values, unit inferred, read-out: IC50 KaKa
# Procedure: as §1, with “Compounds that met the criteria for activity on KB3 cells were further tested for drug growth inhibitory activity in 5 carcinoma, 6 glioma and 3 melanoma cell lines, shown in Table 4. A549” for “A549”, “values. The standard errors are <5% as compared to the mean values.” for “values.”
# Host = assay: Growth inhibition, MTT colorimetric assay, Host; assay type: cell-based; conditions: 3 days with drug, means of six values, unit inferred, read-out: IC50 Host
# Procedure: as §1, with “Compounds that met the criteria for activity on KB3 cells were further tested for drug growth inhibitory activity in 5 carcinoma, 6 glioma and 3 melanoma cell lines, shown in Table 4. A549” for “A549”, “values. The standard errors are <5% as compared to the mean values.” for “values.”
# SKMEL28 (human melanoma) = assay: Growth inhibition, MTT colorimetric assay, SKMEL-28; assay type: cell-based; conditions: melanoma, 3 days with drug, means of six values, unit inferred, read-out: IC50 SKMEL-28
# Procedure: as §1, with “Compounds that met the criteria for activity on KB3 cells were further tested for drug growth inhibitory activity in 5 carcinoma, 6 glioma and 3 melanoma cell lines, shown in Table 4. A549” for “A549”, “values. The standard errors are <5% as compared to the mean values.” for “values.”
# B16-F10 (mouse melanoma) = assay: Growth inhibition, MTT colorimetric assay, B16F10; assay type: cell-based; conditions: melanoma, 3 days with drug, means of six values, unit inferred, read-out: IC50 B16F10
# Procedure: as §1, with “Compounds that met the criteria for activity on KB3 cells were further tested for drug growth inhibitory activity in 5 carcinoma, 6 glioma and 3 melanoma cell lines, shown in Table 4. A549” for “A549”, “values. The standard errors are <5% as compared to the mean values.” for “values.”
# [7] = system: bloodstream forms of T. brucei and T. congolense; assay: Trypanocidal activity in vitro, Alamar Blue assay; assay type: cell-based, Trypanosoma brucei and T. congolense; conditions: 48 h total incubation; for GI50: 50% growth inhibition, read-out: GI50; for MIC: lowest concentration at which all cells were killed, read-out: MIC
# From the text: Trypanosoma brucei and T. congolense are the causative agents of sleeping sickness in humans and nagana in cattle, respectively. The protozoan parasites live extracellularlyin blood and tissue fluids of mammals and are transmitted by the bite of infected tsetse flies (Glossina spp.). Here the trypanocidal activity against bloodstream forms of T. brucei and T. congolense of bis-8-hydroxy quinoline N-substituted benzylamines derivatives was investigated in vitro, according to methods described in. Steverding et al. (2006) Kinetoplastid Biology and Disease, 5(3): 1-5; Hongmance et al., (2007) Antimicrob. Agents Chemother. 51:1105-1106; and Zhao et al., (2005) Bio-org. Med. Chem.; 13: 3921-3926. Cells were seeded into 96-well tissue culture plates in 200 μl medium containing various concentrations of analogues dissolved in H2O. The controls contained the respective solvent alone. […] After 24 h (trypanosomes) or 43 h (HL-60) incubation, 20 μl of the colorimetric viability indicator Alamar Blue® was added to each well. The cells were incubated for a further 24 h (trypanosomes) or 5 h (HL-60) so that the total incubation time was 48 h. Then, the plates were read on a Dynatech MR5000ELISA reader (Denkendorf, Germany),using a test wavelength of 550 nm and a reference wave length of 630 nm. Each test was set up in duplicate and repeated three times. For comparison, the general cytotoxicity of the compounds was assayed with human myeloid leukaemia HL-60 cells. The anti-trypanosomal activities and the general cytotoxicities of the new analogues were evaluated using the Alamar Blue® assay.
Compound,IC50 ([1]; KB3) [nM],"IC50 ([2]; Homo sapiens, A549, 72 h) [nM]","IC50 ([3]; Homo sapiens, BXPC-3, 72 h) [µM]","IC50 (LoVo (colon cancer); Homo sapiens, LoVo, 72 h) [nM]","IC50 ([4]; Homo sapiens, MCF7, 72 h) [nM]","IC50 ([5]; Homo sapiens, 72 h) [nM]","IC50 (Hs683 (human glioma); Homo sapiens, Hs 683, 72 h) [nM]","IC50 (T98G (glioblastoma); Homo sapiens, T98G, 72 h) [nM]","IC50 ([6]; Homo sapiens, U373 MG, 72 h) [nM]","IC50 (U138 MG (human glioma); Homo sapiens, U138-MG, 72 h) [nM]","IC50 (GL19; GL19, 72 h) [µM]",IC50 (RhTP (rhabdomyosarcoma); 72 h) [nM],IC50 (KaKa; 72 h) [nM],IC50 (Host; 72 h) [nM],"IC50 (SKMEL28 (human melanoma); Homo sapiens, SK-MEL-28, 72 h) [µM]","IC50 (B16-F10 (mouse melanoma); Mus musculus, B16-F10, 72 h) [nM]",GI50 [7] [nM],MIC [7] [µM],also measured
"Oc1ccc(CN(Cc2cccc(I)c2)Cc2ccc(O)c3ncccc23)c2cccnc12 [BPM19,200, 5,5′-(3-iodobenzylazanediyl)bis(methylene)diquinolin-8-ol]",1000,350,3.81,393,374,394,479,446,5600,430,> 10,788,7680,2980,9.85,888,,,
"Oc1ccc(CN(Cc2ccccc2)Cc2ccc(O)c3ncccc23)c2cccnc12 [BPM18,725, 5,5′-(benzylazanediyl)bis(methylene)diquinolin-8-ol]",20,54,7.44,91,97,258,76,249,357,95,3.45,97,2430,2160,> 10,765,300 ± 10,1,
"5,5′-(3,5-bis(trifluorométhyl)benzylazanediyl)bis(méthylène)diquinoléin-8-ol [BPM18,201]",,,,,,,,,,,,,,,,,320 ± 10,1,IC50 [1]: 1000 nM; IC50 [2]: 9 nM; IC50 [3]: 0.079 µM; IC50 (LoVo (colon cancer)): 10 nM; IC50 [4]: 38 nM; IC50 [5]: 71 nM; IC50 (Hs683 (human glioma)): 181 nM; IC50 (T98G (glioblastoma)): 72 nM; IC50 [6]: 96 nM; IC50 (U138 MG (human glioma)): 46 nM; IC50 (GL19): 2.14 µM; IC50 (RhTP (rhabdomyosarcoma)): 47 nM; IC50 (KaKa): 98 nM; IC50 (Host): 146 nM; IC50 (SKMEL28 (human melanoma)): > 10 µM; IC50 (B16-F10 (mouse melanoma)): 76 nM
